Data from article PMC5027092, “Specific histamine binding activity of a new lipocalin from Hyalomma asiaticum (Ixodidae) and therapeutic effects on allergic asthma in mice” (Parasites & Vectors, 2016).

Target: T1, Ha24 (rHa24-GST) (Hyalomma asiaticum, UniProt A0A1W5TAU9)
T1 construct: precursor 227 aa with 26-residue signal peptide, mature 201 aa
T1 sequence (A0A1W5TAU9 27-227): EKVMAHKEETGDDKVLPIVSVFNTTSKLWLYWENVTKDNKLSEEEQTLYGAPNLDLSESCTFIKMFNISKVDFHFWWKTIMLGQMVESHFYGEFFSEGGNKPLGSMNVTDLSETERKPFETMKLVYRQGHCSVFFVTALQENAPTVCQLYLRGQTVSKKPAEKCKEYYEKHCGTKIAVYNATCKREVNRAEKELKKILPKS
Assay: ELISA with immobilised rHa24-GST and histamine-HRP conjugate, OD […] nm
Type: binding
Conditions: labelled compound (histamine-HRP); protein coated at 1.25-10 ug/ml, pH 9.6; 37 °C, 2 h; GST as control

NCCc1c[nH]cn1 [histamine]
ELISA with immobilised rHa24-GST and histamine-HRP conjugate, OD 650 nm: The results showed that rHa24 has the ability to bind with histamine
